Columns and labels:
[1] = target: T1, Perforin-1 (Homo sapiens) (UniProt P14222); assay: Inhibition of perforin released from human KHYG-1 NK cells assessed as inhibition of perforin mediated lysis of human K562 cells at 20 uM in presence of 10% mouse serum by [51Cr] release assay; format: cell-based
T1 sequence (whole entry): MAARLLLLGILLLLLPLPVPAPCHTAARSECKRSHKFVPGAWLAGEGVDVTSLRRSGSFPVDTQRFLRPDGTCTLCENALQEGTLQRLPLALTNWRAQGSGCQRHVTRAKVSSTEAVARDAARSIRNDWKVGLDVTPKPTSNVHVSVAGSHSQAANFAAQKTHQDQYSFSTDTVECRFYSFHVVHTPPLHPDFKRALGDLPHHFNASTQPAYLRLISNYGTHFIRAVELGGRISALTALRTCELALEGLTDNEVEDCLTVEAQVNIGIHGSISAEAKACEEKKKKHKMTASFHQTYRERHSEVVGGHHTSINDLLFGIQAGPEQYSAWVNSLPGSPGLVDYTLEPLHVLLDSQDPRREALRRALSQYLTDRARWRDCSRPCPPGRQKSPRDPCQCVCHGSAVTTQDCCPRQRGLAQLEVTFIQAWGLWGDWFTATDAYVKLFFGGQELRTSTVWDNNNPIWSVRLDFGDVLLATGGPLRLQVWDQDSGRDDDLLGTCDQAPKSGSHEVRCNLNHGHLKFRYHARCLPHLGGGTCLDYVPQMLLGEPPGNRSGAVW

[2] = Toxicity against human KHYG-1 NK cells assessed as cell viability at 20 uM incubated for 24 hrs at 37 degC y Trypan blue exclusion method; format: cell-based; conditions: read-out: Activity
[3] = target: T1, Perforin-1 (Homo sapiens); assay: Inhibition of perforin released from human KHYG-1 NK cells assessed as inhibition of perforin mediated lysis of human K562 cells at 20 uM in presence of 0.1% BSA by [51Cr] release assay; format: cell-based
[4] = Inhibition of recombinant perforin mediated lysis of human Jurkat cells pre-incubated for 30 mins with perforin followed by incubation with Jurkat cells at 37 degC for 4 hrs in presence of 0.1% BSA by [51Cr] release assay

| Structure (SMILES) | inhibition [1] | inhibition [3] | IC50 [4] | viability at 24 h, 20 µM [2] |
| --- | --- | --- | --- | --- |
| N#Cc1c(-c2ccc(C(=O)NCC(O)CO)cc2)c(C#N)c2nc3ccccc3n2c1N (configuration not stated) | 0% | 0% |  | 84% |
| N#Cc1c(-c2ccc(C(N)=O)cc2)c(C#N)c2nc3ccccc3n2c1N | 6% | 7% |  | 79% |
| N#Cc1c(-c2ccc(C(=O)NCCO)cc2)c(C#N)c2nc3ccccc3n2c1N | 12% | 4% |  | 89% |
| N#Cc1c(-c2ccc(OCCO)cc2)c(C#N)c2nc3ccccc3n2c1N | 16% | 15% |  | 85% |
| CNC(=O)c1ccc(-c2c(C#N)c(N)n3c(nc4ccccc43)c2C#N)cc1 | 12% | 9% |  | 84% |
| Cc1cccc2c1nc1c(C#N)c(-c3ccc(OCC(N)=O)cc3)c(C#N)c(N)n12 | 8% | 10% |  | 88% |
| N#Cc1c(-c2ccc(C(=O)NCCc3ccncc3)cc2)c(C#N)c2nc3ccccc3n2c1N | 20% | 15% |  | 62% |
| N#Cc1c(-c2ccc(C(=O)NCCCO)cc2)c(C#N)c2nc3ccccc3n2c1N | 7% | 0% |  | 86% |
| CCNC(=O)c1ccc(-c2c(C#N)c(N)n3c(nc4ccccc43)c2C#N)cc1 | 12% | 19% |  | 53% |
| Cc1cc2nc3c(C#N)c(-c4ccc(OCC(N)=O)cc4)c(C#N)c(N)n3c2cc1C | 5% | 38% |  | 62% |
| CN(C)C(=O)CCc1ccc(-c2c(C#N)c(N)n3c(nc4ccccc43)c2C#N)cc1 | 64% | 49% |  | 96% |
| N#Cc1c(-c2ccc(C(=O)NCCN3CCOCC3)cc2)c(C#N)c2nc3ccccc3n2c1N | 5% | 1% |  | 85% |
| CC(O)CNC(=O)c1ccc(-c2c(C#N)c(N)n3c(nc4ccccc43)c2C#N)cc1 (configuration not stated) | 0% | 0% |  | 68% |
| Cc1ccc2c(nc3c(C#N)c(-c4ccc(OCC(N)=O)cc4)c(C#N)c(N)n32)c1C | 7% | 36% |  | 60% |
| Cc1cc2c(c(=S)[nH]1)C(=O)O/C2=C\c1csc2ccccc12 | 6% | 60% | 970 nM | 88% |

Second part, led by results:

| inhibition [1] | inhibition [3] | IC50 [4] | Structure (SMILES) | viability at 24 h, 20 µM [2] |
| --- | --- | --- | --- | --- |
| 22% | 52% |  | CC(C)NC(=O)COc1ccc(-c2c(C#N)c(N)n3c(nc4ccccc43)c2C#N)cc1 | 70% |
| 22% | 41% |  | CCCNC(=O)COc1ccc(-c2c(C#N)c(N)n3c(nc4ccccc43)c2C#N)cc1 | 90% |
| 42% | 41% |  | CNC(=O)COc1ccc(-c2c(C#N)c(N)n3c(nc4ccccc43)c2C#N)cc1 | 84% |
| 6% | 0% |  | N#Cc1c(-c2ccc(OCC(=O)NCCO)cc2)c(C#N)c2nc3ccccc3n2c1N | 92% |
| 25% | 34% |  | CN(C)C(=O)COc1ccc(-c2c(C#N)c(N)n3c(nc4ccccc43)c2C#N)cc1 | 78% |
| 11% | 0% |  | CCNC(=O)COc1ccc(-c2c(C#N)c(N)n3c(nc4ccccc43)c2C#N)cc1 | 77% |
| 2% | 18% |  | N#Cc1c(-c2ccc(OCC(N)=O)cc2)c(C#N)c2nc3ccccc3n2c1N | 86% |
